Counter-ions that a name gives are not always drawn.

By Ki is commonly meant a dissociation constant, usually derived from enzyme kinetics or from competition with a known ligand. One may read the IC90 as the concentration needed for an effect of 90%.

In the first assay the target is HIV-1 protease (Human immunodeficiency virus type 1 group M subtype B, UniProt P04585). In words: Inhibition constants against HIV-1 protease (method of Pennington et al.). The format is biochemical. The conditions noted are these: HIV-1 protease; read-out: Ki value. An excerpt:
We measured the inhibition constants of the compounds listed in Table VII against HIV-1 protease using the above-cited method of Pennington et al.
`CC(C)CN(C[C@@H](O)[C@H](Cc1ccccc1)NC(=O)C(CC(N)=O)C(=O)OCc1ccccn1)S(=O)(=O)c1ccc(F)cc1` (stereo partly drawn) [Compound 26, N-1-(3-((4-Fluoro-benzenesulfonyl)-isobutyl-amino)-(1S,2 syn)-1-benzyl-2-hydroxy-propyl)-2-(pyridin-2-yl-methoxycarbonyl)-succinamide]: the Ki turned out to be 0.1 nM.

Turning to `CC(C)CN(CC(O)[C@H](Cc1ccccc1)NC(=O)[C@H](CC(N)=O)NC(=O)c1ccc2ccccc2n1)S(=O)(=O)c1ccc(-c2ccccn2)s1` (stereo partly drawn) [Compound 12, (S)-N-1-(1-(S)-Benzyl-2-(syn)-hydroxyl-3-(isobutyl-(5-pyridin-2-yl-thiophene-2-sulfonyl)-amino)-propyl)-2-((quinoline-2-carbonyl)-amino)-succinamide], the Ki was 0.1 nM.

On to `CC(=O)Nc1ccc(S(=O)(=O)N(CC(C)C)CC(O)C(Cc2ccccc2)NC(=O)OC2CCOC2)cc1` [Compound 86, N-(4-(((2 syn,3S)-2-Hydroxy-4-phenyl-3-((R)-tetrahydrofuran-3-yloxycarbonylamino)-butyl)-isobutyl-sulfamoyl-phenyl)-acetamide and N-(4-(((2 syn,3S)-2-Hydroxy-4-phenyl-3-((S)-tetrahydrofuran-3-yloxycarbonylamino)-butyl)-isobutyl-sulfamoyl)-phenyl)-acetamide], for which the Ki was 5 nM.

Take `CC(C)CN(CC(O)C(Cc1ccccc1)NC(=O)OCC1CCOC1)S(=O)(=O)c1ccc(Cl)c(Cl)c1` (stereo not shown) [Compound 85]: the Ki is 4 nM.

With `CC(=O)Nc1ccc(S(=O)(=O)N(CC(C)C)CC(O)[C@H](Cc2ccccc2)NC(=O)C(CC(N)=O)C(=O)OCc2ccncc2)cc1` (stereo partly drawn) [Compound 23, N-1-(3-((4-Acetylamino-benzenesulfonyl)-isobutyl-amino)-(1S,2 syn)-1-benzyl-2-hydroxy-propyl)-2-(pyridin-4-yl-methoxycarbonyl)-succinamide], the Ki is 1.5 nM.

`CC(C)CN(CC(O)[C@H](Cc1ccccc1)NC(=O)O[C@H]1CCOC1)S(=O)(=O)c1cccnc1` (stereo partly drawn) [Compound 144, Pyridine-3-sulfonic acid ((2 syn,3S)-2-hydroxy-4-phenyl-3-((S)-tetrahydrofuran-3-yloxycarbonylamino)-butyl)-isobutyl-amide, trifluoroacetic acid salt]: the Ki is 8 nM.

As for `O=C(N[C@@H](Cc1ccccc1)[C@H](O)CN(CC1CCCC1)S(=O)(=O)c1ccc([N+](=O)[O-])cc1)O[C@H]1CCOC1` [Compound 170, N-Cyclopentylmethyl-N-((2 syn,3S)-2-hydroxy-4-phenyl-3-((S)-tetrahydrofuran-3-yloxycarbonylamino)-butyl)-4-nitro-benzensulfonamide], the inhibition constant (Ki) is 0.2 nM.

`NC(=O)C[C@H](NC(=O)c1ccc2ccccc2n1)C(=O)N[C@@H](Cc1ccccc1)[C@H](O)CN(Cc1ccccc1)S(=O)(=O)c1ccc(-c2ccon2)s1` [Compound 6, (S)-N-1-(1-Benzyl-3-(benzyl-(5-isoxazol-3-yl-thiophene-2-sulfonyl)-amino)-(1S,2 syn)-1-benzyl-2-hydroxy-propyl)-2-((quinoline-2-carbonyl)-amino)-succinamide]: the Ki worked out at 3 nM.

Turning to `COc1ccc(S(=O)(=O)N(CC2CCCC2)CC(O)C(Cc2ccccc2)NC(=O)OC2CCNC2)cc1` (stereo not shown) [Compound 185], the Ki came to 3.5 nM.

Take `CC(=O)Nc1ccc(S(=O)(=O)N(CC(C)C)CC(O)C(Cc2ccccc2)NC(=O)OCC2COC(=O)N2)cc1` (stereo not shown) [Compound 110]: the inhibition constant (Ki) amounted to 28 nM.

For the compound `C=C(C)COC(=O)N[C@@H](Cc1ccccc1)[C@H](O)CN(CC(C)C)S(=O)(=O)c1ccc(NC(C)=O)cc1` [Compound 105], the Ki turned out to be 7.5 nM.

For the compound `CC(=O)Nc1ccc(S(=O)(=O)N(CC(C)C)C[C@@H](O)[C@H](Cc2ccccc2)NC(=O)OC(C)C)cc1` [Compound 29], the inhibitory constant (Ki) stood at 17 nM.

With `CC(=O)Nc1ccc(COC(=O)N[C@@H](Cc2ccccc2)[C@H](O)CN(CC(C)C)S(=O)(=O)c2ccc(NC(C)=O)cc2)cc1` [Compound 96], the inhibition constant (Ki) was 8 nM.

With `NC(=O)C[C@H](NC(=O)c1ccc2ccccc2n1)C(=O)N[C@@H](Cc1ccccc1)[C@H](O)CN(Cc1ccccc1)S(=O)(=O)c1cccc(C(F)(F)F)c1` [Compound 4], the Ki amounted to 19 nM.

Take `CC(C)CN(C[C@@H](O)[C@H](Cc1ccccc1)NC(=O)O[C@H]1CCOC1)S(=O)(=O)N(C)C` [Compound 69]: the inhibitory constant (Ki) amounted to 42 nM.

Consider `CC(=O)Nc1ccc(S(=O)(=O)N(CC(C)C)C[C@@H](O)[C@H](Cc2ccccc2)NC(=O)C[C@H]2CNC(=O)C2)cc1` [Compound 1002], for which the Ki amounted to 28 nM.

Regarding `CC(C)CN(C[C@@H](O)[C@H](Cc1ccccc1)NC(=O)O[C@H]1CCOC1)S(=O)(=O)N1CCCCC1` [Compound 150, Piperidine-1-sulfonic acid ((2 syn,3S)-2-hydroxy-4-phenyl-3-((S)-tetrahydrofuran-3-yloxycarbonylamino)-butyl)-isobutyl-amide], the inhibition constant (Ki) amounted to 6 nM.

Consider `CC(C)CN(C[C@@H](O)[C@H](Cc1ccccc1)NC(=O)O[C@H]1CCOC1)S(=O)(=O)c1ccc(OC(F)(F)F)cc1` [Compound 152], for which the Ki amounted to 2.5 nM.

As to `Cc1ccc(S(=O)(=O)N(CC(C)C)C[C@@H](O)[C@H](Cc2ccccc2)NC(=O)O[C@H]2CCOC2)cc1` [Compound 165, N-((2 syn,3S)-2-Hydroxy-4-phenyl-3-((syn)-tetrahydrofuran-3-yloxycarbonylamino)-butyl)-N-isobutyl-4-methyl-benzenesulfonamide], the Ki was found to be 0.4 nM.

Consider `CC(C)CN(C[C@@H](O)[C@H](Cc1ccccc1)NC(=O)O[C@H]1CCOC1)S(=O)(=O)c1ccc2nonc2c1` [Compound 66], for which the Ki amounted to 0.4 nM.

With `CC(=O)Nc1ccc(S(=O)(=O)N(CC(C)C)C[C@@H](O)[C@H](Cc2ccccc2)NC(=O)[C@H](CC(N)=O)NC(=O)c2ccc3ccccc3n2)cc1` [Compound 17, (S)-N-1-(1-(S)-Benzyl-3-((4-acetylamino-benzenesulfonyl)-isobutyl-amino)-2-(syn)-hydroxy-propyl)-2-((quinoline-2-carbonyl)-amino)-succinamide], the inhibition constant (Ki) is under 0.1 nM.

Regarding `C=CCOC(=O)N[C@@H](Cc1ccccc1)[C@H](O)CN(CC1CCCC1)S(=O)(=O)c1ccc(NC(C)=O)cc1` [Compound 146, N-(4-((3-(Allyloxycarbonylamino)-(2 syn,3S)-2-hydroxy-4-phenyl-butyl)-cyclopentylmethylsulfamoyl)-phenyl)-acetamide], the Ki was determined as 2 nM.

For the compound `CC(=O)Nc1ccc(S(=O)(=O)N(CC(C)C)C[C@@H](O)[C@H](Cc2ccccc2)NC(=O)[C@H](CC(N)=O)NC(=O)c2ccc3ccccc3n2)cc1F` [Compound 15, (S)-N-1-(3-((4-Acetylamino-3-fluoro-benzenesulfonyl)-isobutyl-amino)-(1S,2 syn)-1-benzyl-2-hydroxy-propyl)-2-((quinoline-2-carbonyl)-amino)-succinamide], the Ki was under 0.1 nM.

With `C=CCOC(=O)N[C@@H](Cc1ccccc1)[C@H](O)CN(CC(C)C)S(=O)(=O)c1ccc(OC)cc1` [Compound 154], the Ki came to 0.5 nM.

As for `COC(=O)N[C@@H](Cc1ccccc1)[C@H](O)CN(CC(C)C)S(=O)(=O)c1ccc(F)cc1` [Compound 104], the Ki stood at 5.5 nM.

As to `CC(=O)Nc1cc(S(=O)(=O)N(CC(C)C)C[C@@H](O)[C@H](Cc2ccccc2)NC(=O)[C@H](CC(N)=O)NC(=O)c2ccc3ccccc3n2)ccc1F` [Compound 16, (S)-N-1-(3-((3-Acetylamino-4-fluoro-benzenesulfonyl)-isobutyl-amino)-(1S,2 syn)-1-benzyl-2-hydroxy-propyl)-2-((quinoline-2-carbonyl)-amino)-succinamide], the Ki was under 0.1 nM.

For `CC(C)(C)OC(=O)N[C@@H](Cc1ccccc1)[C@H](O)CN(CC1CCCC1)S(=O)(=O)c1ccc(Cl)c(Cl)c1` [Compound 84], the Ki turned out to be 1.4 nM.

Turning to `CC(C)CN(C[C@@H](O)[C@H](Cc1ccccc1)NC(=O)OC[C@@H]1COC(=O)N1)S(=O)(=O)c1ccc(F)cc1` [Compound 109, 4-Fluoro-N-(2-(syn)-hydroxy-3-((2-oxazolidon-(S)-4-yl)-methoxycarbonylamino)-4-(S)-phenyl-butyl)-N-isobutyl-benzenesulfonamide], the Ki worked out at 6 nM.

Consider `CC(C)CN(C[C@@H](O)[C@H](Cc1ccccc1)NC(=O)O[C@H]1CCOC1)S(=O)(=O)c1ccc(-c2ccon2)s1` [Compound 145, 5-Isoxazol-3-yl-thiophene-2-sulfonic acid ((2 syn,3S)-2-hydroxy-4-phenyl-3-((S)-tetrahydrofuran-3-yloxycarbonylamino)-butyl)-isobutyl-amide], for which the inhibitory constant (Ki) was 1.4 nM.

Regarding `CC(C)CN(C[C@@H](O)[C@H](Cc1ccccc1)NC(=O)O[C@H](C)c1ccccc1)S(=O)(=O)c1cccc2nonc12` [Compound 59], the inhibitory constant (Ki) was 206 nM.

A further assay deals with HIVIIIb in CCRM-CEM cells. The experiment in a line: Anti-viral potency in CCRM-CEM cells acutely infected with HIVIIIb, extracellular p24 antigen readout (method of Meek et al.). It is filed as cell-based, HIV-1. The following applies: CCRM-CEM cells, HIV replication; read-out: IC90 Range. The procedure: Compounds of formula I were tested for their antiviral potency in several virological assays.
The effect of the compounds on inhibiting the replication of the virus was measured by determining the HIV extracellular p24 antigen concentration using a commercial enzyme immunoassay (obtained from Coulter Corporation, Hialeah, Fla.).
In Table VIII, the following classifications have been employed: • A: inhibits HIV replication at concentration of 100 nM or less. • B: inhibits HIV replication at concentration of between 101 and 1,000 nM. • C: inhibits HIV replication at a concentration of between 1,001 and 10,000 nM. • D: inhibits HIV replication at a concentration of between 10,001 and 40,000 nM. • ND: not tested.
Consider `CC(C)CN(C[C@@H](O)[C@H](Cc1ccccc1)NC(=O)C(CC(N)=O)C(=O)OCc1ccccn1)S(=O)(=O)c1ccc(F)cc1` (stereo partly drawn) [Compound 26, N-1-(3-((4-Fluoro-benzenesulfonyl)-isobutyl-amino)-(1S,2 syn)-1-benzyl-2-hydroxy-propyl)-2-(pyridin-2-yl-methoxycarbonyl)-succinamide], for which the IC90 lay in the range of 101 to 1000 nM.

For the compound `CC(C)CN(CC(O)[C@H](Cc1ccccc1)NC(=O)[C@H](CC(N)=O)NC(=O)c1ccc2ccccc2n1)S(=O)(=O)c1ccc(-c2ccccn2)s1` (stereo partly drawn) [Compound 12, (S)-N-1-(1-(S)-Benzyl-2-(syn)-hydroxyl-3-(isobutyl-(5-pyridin-2-yl-thiophene-2-sulfonyl)-amino)-propyl)-2-((quinoline-2-carbonyl)-amino)-succinamide], the IC90 is under 100 nM.

For the compound `CC(=O)Nc1ccc(S(=O)(=O)N(CC(C)C)CC(O)[C@H](Cc2ccccc2)NC(=O)C(CC(N)=O)C(=O)OCc2ccncc2)cc1` (stereo partly drawn) [Compound 23, N-1-(3-((4-Acetylamino-benzenesulfonyl)-isobutyl-amino)-(1S,2 syn)-1-benzyl-2-hydroxy-propyl)-2-(pyridin-4-yl-methoxycarbonyl)-succinamide], the IC90 lay in the range of 101 to 1000 nM.

Take `CC(C)CN(CC(O)[C@H](Cc1ccccc1)NC(=O)O[C@H]1CCOC1)S(=O)(=O)c1cccnc1` (stereo partly drawn) [Compound 144, Pyridine-3-sulfonic acid ((2 syn,3S)-2-hydroxy-4-phenyl-3-((S)-tetrahydrofuran-3-yloxycarbonylamino)-butyl)-isobutyl-amide, trifluoroacetic acid salt]: the IC90 was in the range of 101 to 1000 nM.

Still in this assay, the particulars now being: Human immunodeficiency virus 1, read-out: IC90 Range.
On to `CC(=O)Nc1ccc(S(=O)(=O)N(CC(C)C)CC(O)C(Cc2ccccc2)NC(=O)OC2CCOC2)cc1` [Compound 86, N-(4-(((2 syn,3S)-2-Hydroxy-4-phenyl-3-((R)-tetrahydrofuran-3-yloxycarbonylamino)-butyl)-isobutyl-sulfamoyl-phenyl)-acetamide and N-(4-(((2 syn,3S)-2-Hydroxy-4-phenyl-3-((S)-tetrahydrofuran-3-yloxycarbonylamino)-butyl)-isobutyl-sulfamoyl)-phenyl)-acetamide], for which the IC90 lay in the range of 101 to 1000 nM.

`CC(C)CN(CC(O)C(Cc1ccccc1)NC(=O)OCC1CCOC1)S(=O)(=O)c1ccc(Cl)c(Cl)c1` (stereo not shown) [Compound 85]: the IC90 lay within 1000 to 10000 nM.

Staying with this assay, now noted: Human immunodeficiency virus 1; CCRM-CEM cells, HIV replication; read-out: IC90 Range.
Regarding `CC(C)CN(C[C@@H](O)[C@H](Cc1ccccc1)NC(=O)O[C@H]1CCOC1)S(=O)(=O)c1ccc(N)cc1` [Compound 168, 4-Amino-N-((2 syn,3S)-2-Hydroxy-4-phenyl-3-((S)-tetrahydrofuran-3-yloxycarbonylamino)-butyl)-N-isobutyl-benzenesulfonamide], the IC90 was under 100 nM.

These data come from patent publication US20080293727A1, “Novel sulfonamide inhibitors of aspartyl protease” (priority 1992, published 2008).
